The values that follow come from patent publication US12298319B2, “Method for measuring alpha value of muscarinic M1 receptor positive allosteric modulators” (Takeda Pharmaceutical Company Limited, priority 2017, dated 2025).

One test addresses M3R (Homo sapiens, UniProt P20309). Briefly: Ca2+ flux PAM activity against other muscarinic receptor subtypes, M3R. It counts as cell-based. The following applies: in the presence of EC20 ACh; read-out: PAM activity against other muscarinic receptor subtypes M3R pIP. Background: Calcium flux is commonly read through the fluorescence of an indicator in the cells.
Another test concerns the target T1, M5R (Homo sapiens, UniProt P08912).
T1 sequence (P08912 1-532): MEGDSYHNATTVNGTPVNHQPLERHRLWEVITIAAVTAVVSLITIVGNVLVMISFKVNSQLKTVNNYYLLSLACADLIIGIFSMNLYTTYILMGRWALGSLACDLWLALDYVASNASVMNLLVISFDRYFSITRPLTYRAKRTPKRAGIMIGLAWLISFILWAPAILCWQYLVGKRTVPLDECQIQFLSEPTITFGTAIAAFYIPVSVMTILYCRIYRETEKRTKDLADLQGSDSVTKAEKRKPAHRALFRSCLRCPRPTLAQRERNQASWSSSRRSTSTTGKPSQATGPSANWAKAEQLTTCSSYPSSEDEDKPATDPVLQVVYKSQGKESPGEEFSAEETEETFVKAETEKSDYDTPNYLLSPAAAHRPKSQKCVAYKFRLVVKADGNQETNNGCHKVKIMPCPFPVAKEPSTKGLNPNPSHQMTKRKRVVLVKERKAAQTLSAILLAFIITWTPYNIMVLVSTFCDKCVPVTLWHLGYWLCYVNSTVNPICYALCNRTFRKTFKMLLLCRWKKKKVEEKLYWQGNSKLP
Briefly: Ca2+ flux PAM activity against other muscarinic receptor subtypes, M5R. Type of test: cell-based. The following applies: in the presence of EC20 ACh; read-out: PAM activity against other muscarinic receptor subtypes M5R pIP.

Another test deals with isolated mouse ileum. Briefly: In vitro Magnus assay, EFS-induced ileum contraction. As to conditions: for Ileum contraction at 1 μM (% of cont.) Mean: isolated mouse ileum with EFS. As for the experimental part: After overnight fasting, mice were sacrificed by decapitation. The ileum was quickly dissected out and suspended in ice-cold Krebs solution with the following composition (in mM): NaCl, 120.7; KCl, 5.9; CaCl2, 2.5; MgCl2, 1.2; […], 15.5; NaH2PO4, 1.2; and glucose, 11.5. Longitudinal segments of ileum (10-15 mm long) were detached of mesentery and adipose tissue, and mounted in organ baths containing 10 mL of Krebs solution aerated with 95% O2/5% CO2. Bath temperature was maintained at 37° C. The isolated ileum was given a passive load of 0.5 g. The contractile response of the isolated ileum was continuously recorded with isometric transducer (MLT050/A, ADInstruments, New South Wales, Australia) and recorder (PowerLab 8/30 ML870 and Octal Bridge Amp ML228, ADInstruments).
Platinum electrodes (3-20 mm apart, Iwashiya Kishimoto Medical Instruments, Kyoto, Japan) were mounted on both sides of the isolated ileum. The electrodes were connected to an electric stimulator (SEG-3104, Nihon Kohden, Tokyo, Japan) and an amplifier (SIG-3140, Nihon Kohden) for EFS with square wave pulses (20 V over the electrodes, 50 ms duration, and 20 Hz frequency); pulse trains were lasting for 10 s with 20 s pause.
The EFS produced sustained tonic contraction, followed by relaxation. The contraction was measured as the maximum strength from the baseline. The effects of experimental substances on the maximum contraction were measured. At the beginning of each experiment, a series of control EFS cycles was tested for more than 1 h to observe stability of contractile response. The ileum with a steady contractile response elicited by control EFS during the 1 h was used to investigate the effect of test compounds.
After responses to control EFS reached a steady-state, the compounds were added to the Magnus bath cumulatively, without washing between the subsequent doses. The interval between two adjacent doses was always at least 5 min, thus the isolated preparations receive at least 10 pulses in each dose of the compounds. After cumulating all doses of compounds, the bath was washed three times, and the ilea were allowed to rest for further 30 min. The effect of each concentration of the compounds on ileum contraction induced by EFS was calculated from the average value of 10 responses of the maximum strength. Then the ileum contractile response was expressed as a ratio (%) of the mean maximum contraction to that obtained with the pre-treated DMSO (solvent) to obtain concentration-response curve. Due to very small size of relaxations, the effects of the compounds on them was not be analyzed.

For the next test, the target named is T2, human M1R (Homo sapiens, UniProt P11229).
T2 sequence (P11229 1-460): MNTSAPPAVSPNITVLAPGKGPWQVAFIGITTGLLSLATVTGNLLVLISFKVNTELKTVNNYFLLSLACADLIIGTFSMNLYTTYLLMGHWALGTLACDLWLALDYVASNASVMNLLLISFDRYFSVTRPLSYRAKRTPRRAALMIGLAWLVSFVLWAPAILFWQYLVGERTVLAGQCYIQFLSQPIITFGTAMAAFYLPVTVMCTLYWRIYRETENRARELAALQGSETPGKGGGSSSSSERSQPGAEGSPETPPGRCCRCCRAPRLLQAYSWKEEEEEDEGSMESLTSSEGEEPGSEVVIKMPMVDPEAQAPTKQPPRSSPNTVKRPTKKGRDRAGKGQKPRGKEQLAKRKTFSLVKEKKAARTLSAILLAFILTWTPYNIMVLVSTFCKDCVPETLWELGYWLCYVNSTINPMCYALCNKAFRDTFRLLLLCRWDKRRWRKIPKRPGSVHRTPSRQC
Briefly: Binding modulation assay, displacement of [3H]-pirenzepine by ACh, FreeStyle 293 cell membranes. Details: expressed in transfected cells; host or cells: FreeStyle 293 cells (transient), cell membranes. As to conditions: for Kb: affinity of the PAM to the free M1R, read-out: pKB Mean (converted); for log α Mean / α-value: binding cooperativity between ACh and PAM. On the procedure: Binding assay was performed in 96-well plate format. Cell membranes from FreeStyle 293 cells transiently expressed human M1R were incubated with test compounds, ACh and 4 nM [^3H]-pirenzepine in an assay buffer (20 mM HEPES, 100 mM NaCl, 10 mM MgCl2, 0.1% fatty acid free BSA). After 2 h incubation at room temperature, cell membranes were transferred to GF/C filter plates (PerkinElmer, Massachusetts, USA) using cell-harvester (PerkinElmer) and washed 5 times with 300 μL of 50 mM Tris-HCl. Then, GF/C plates were dried at 42° C. 25 μL of microscint 0 (PerkinElmer) was added and the radioactivity was measured by Topcount (PerkinElmer). Non-specific bound was defined in the presence of 10 μM atropine.
All data were analyzed using GraphPad Prism 5 software (GraphPad Software Inc., California, USA). Radioligand binding data were globally fitted to the following allosteric ternary complex model:
[formula] where Y is the percentage of specific binding; [A], [B], and [C] are the concentrations of ACh, the allosteric modulator, and [^3H]-pirenzepine, respectively; KA, KB, and KC denote the equilibrium dissociation constants of ACh, the allosteric modulator, and [^3H]-pirenzepine, respectively; and αAB and […] are the cooperativities between the allosteric modulator and ACh or [^3H]-pirenzepine, respectively. […] The functional interactions between M1 PAMs and ACh were globally fitted to the following operational model of allosterism (Nat Rev Drug Discov. 2009; 8(1): 41-54 and Trends Pharmacol Sci. 2007; 28(8): 382-9)
For orientation: Loss of bound radioactivity is the signal in a displacement assay; it reports binding, not function.

SMILES strings stand for the structures.

Chain of M3R (P20309 whole entry): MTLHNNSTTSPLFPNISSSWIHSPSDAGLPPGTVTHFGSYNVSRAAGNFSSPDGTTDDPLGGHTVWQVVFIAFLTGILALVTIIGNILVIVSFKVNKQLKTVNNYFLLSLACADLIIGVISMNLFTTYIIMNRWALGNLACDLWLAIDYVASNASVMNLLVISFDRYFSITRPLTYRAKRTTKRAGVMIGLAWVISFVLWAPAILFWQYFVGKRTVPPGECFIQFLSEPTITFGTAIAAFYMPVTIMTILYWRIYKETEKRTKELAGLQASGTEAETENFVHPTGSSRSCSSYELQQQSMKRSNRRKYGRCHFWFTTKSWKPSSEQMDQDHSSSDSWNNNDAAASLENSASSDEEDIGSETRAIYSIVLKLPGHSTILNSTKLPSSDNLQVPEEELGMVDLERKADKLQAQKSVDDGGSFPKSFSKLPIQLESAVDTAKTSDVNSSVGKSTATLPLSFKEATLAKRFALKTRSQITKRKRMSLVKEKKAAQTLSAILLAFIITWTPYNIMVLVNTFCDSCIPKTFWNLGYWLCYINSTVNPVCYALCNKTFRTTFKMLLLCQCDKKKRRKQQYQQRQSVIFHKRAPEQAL

Consider `Cn1cc(-c2ccc(Cc3cc4c(=O)n([C@H]5CCCC[C@@H]5O)cnc4c4ccccc34)cn2)cn1` [Compound C, 3-((1S,2S)-2-hydroxycyclohexyl)-6-((6-(1-methyl-1H-pyrazol-4-yl)pyridin-3-yl)methyl)benzo[h]quinazoline-4(3H)-one, reference compound], for which the EC50 on M3R was > 10 µM. At M5R, the EC50 was > 10 µM. Moreover, the “Ileum contraction at 1 μM (% of cont.) Mean” value in the test with isolated mouse ileum was 104 % of cont. For the same molecule, at human M1R, the Kb was 0.288 µM, the “log α Mean” value stood at 3.25 and the α-value is on record as 1786.

With `Cc1c(Cc2ccc(-n3cccn3)cc2)cc2c(c1F)CN([C@H]1COCC[C@@H]1O)C2=O` [Compound D, 4-fluoro-2-[(3S,4S)-4-hydroxytetrahydro-2H-pyran-3-yl]-5-methyl-6-[4-(1H-pyrazol-1-yl)benzyl]-2,3-dihydro-1H-isoindol-1-one], the α-value on human M1R turned out to be 199.

On to `Cn1cc(-c2ccc(CN3Cc4cccc(-c5ccn[nH]5)c4C3=O)cc2)cn1` [Compound G, 2-(4-(1-methyl-1H-pyrazol-4-yl)benzyl)-7-(1H-pyrazol-5-yl)isoindolin-1-one], for which the EC50 on M3R and at M5R was > 10 µM each time. Besides, the “Ileum contraction at 1 μM (% of cont.) Mean” value in the test on isolated mouse ileum was 93 % of cont. The Kb on human M1R was 14.8 µM. Also, the “log α Mean” value at human M1R came out at 0.56.

Regarding `Cn1ccc(-c2ccc(CN3Cc4cccc(O[C@H]5CCCC[C@@H]5O)c4C3=O)cc2)n1` [Compound A, 7-(((1S,2S)-2-hydroxycyclohexyl)oxy)-2-(4-(1-methyl-1H-pyrazol-3-yl)benzyl)isoindolin-1-one], at M3R, the EC50 was > 10 µM. Moreover, at M5R, the EC50 is > 10 µM. Moreover, in the test on isolated mouse ileum (0.1 nM-1 μM), the “augmentation of EFS-induced ileum contraction” value is reported as “concentration-dependent augmentation”. Besides, in the test on isolated mouse ileum, the “Ileum contraction at 1 μM (% of cont.) Mean” value is 116 % of cont. The “augmentation of EFS-induced ileum contraction with telenzepine” value in the test with isolated mouse ileum (with 1 nM of telenzepine) is recorded as “suppressed”. Besides, at human M1R, the Kb was 26.3 µM, the “log α Mean” value worked out at 3.30 and the α-value turned out to be 2371.

With `O=c1c2cn(Cc3ccc(-n4cccn4)cc3)c3ccccc3c-2nn1-c1ccccc1F` [Compound E, 2-(2-fluorophenyl)-5-(4-(1H-pyrazol-1-yl)benzyl)-2,5-dihydro-3H-pyrazolo[4,3-c]quinolin-3-one, reference compound], the EC50 at M3R is > 10 µM. The EC50 on M5R was > 10 µM. In addition, in the test on isolated mouse ileum, the “Ileum contraction at 1 μM (% of cont.) Mean” value was 106 % of cont. Besides, at human M1R, the Kb is 3.09 µM and the “log α Mean” value worked out at 2.67.

In the case of `Cn1cc(-c2ccc(CN3Cc4cccc(Oc5c(F)cccc5C#N)c4C3=O)cc2)cn1` [Compound B, 3-fluoro-2-((2-(4-(1-methyl-1H-pyrazol-4-yl)benzyl)-3-oxo-2,3-dihydro-1H-isoindol-4-yl)oxy)benzonitrile], the EC50 on M3R was > 10 µM. In addition, the EC50 on M5R was > 10 µM. For the same molecule, the “Ileum contraction at 1 μM (% of cont.) Mean” value with isolated mouse ileum was 97 % of cont. Also, the “effect on EFS-induced ileum contraction” value in the test with isolated mouse ileum (up to 1 μM) is on record as “no effect”. Besides, at human M1R, the Kb is 0.977 µM, the “log α Mean” value is reported as 1.18 and the α-value was 16.

For `Cn1cc(-c2ccc(CN3Cc4cccc(OCCN5CCCCC5)c4C3=O)cc2)cn1` [Compound F, 2-(4-(1-methyl-1H-pyrazol-4-yl)benzyl)-7-(2-(piperidin-1-yl)ethoxy)isoindolin-1-one], at M3R, the EC50 is > 10 µM. In addition, the EC50 on M5R is > 10 µM. In addition, in the test on isolated mouse ileum, the “Ileum contraction at 1 μM (% of cont.) Mean” value is on record as 102 % of cont. Also, on human M1R, the Kb was 9.12 µM and the “log α Mean” value is on record as 1.54.
